Experimental data as given in US20120289492A1, “METHODS OF TREATING MITOCHONDRIAL DISORDERS USING METALLOPORPHYRINS” (priority 2009, published 2012).
“Also recorded” adds a separate entry of the source.

Assays:
mouse lymphoma = test: Mouse lymphoma test (mutagenicity); type: cell-based
Excerpt: Safety profile: A prototypical metalloporphyrin (AEOL10150; FIG. 1) has completed phase 1 trials in amyotrophic lateral sclerosis patients. Extensive safety studies of this compound have been completed in mice, monkeys and rats. […] Safety studies for the structurally related compound, AEOL11207 need to be completed once its efficacy is established in animal studies.

B6D2F2 Sod2−/− mice = test: Behavioral seizure evaluation and survival of Sod2−/− mice
Excerpt: The model utlizes cross-bred C57BL6XDBA2F2 (B6D2) mutant mice lacking manganese superoxide dismutase (MnSOD or Sod2), a critical mitochondrial antioxidant.
Chronic Video Monitoring and Seizure Scoring: Sod2−/− mice and wild type littermates aged P7-˜P21 are digitally recorded 8 hrs/day in a custom designed plexiglass cage using a Q-See QD14B video monitoring system connected to a recordable DVD. DVD recordings are saved and reviewed by a trained observer blind to genotype and/or treatment for scoring of seizure severity, duration, and frequency. Seizure severity will be rated using the following scale: 1=immobilization & staring, 2=head-nodding, occasional forelimb clonic and tonic activity, 3=continuous forelimb clonic and tonic activity, 4=generalized seizures with falling, running and jumping.
The mutant mice were monitored on a daily basis to get an accurate birth and death data. Pups were not culled or handled before P5 to avoid maternal rejection.
Metalloporphyrin (AEOL11207) administration B6D2F1 Sod2−/− mice and their wild-type littermates (control mice) were treated with AEOL11207 (5 mg/kg) or vehicle by subcutaneous (s.c.) injection daily starting at 5 days of age until death or being sacrificed. AEOL11207 was dissolved in dimethyl sulfoxide (DMSO) and diluted with sterilized phosphate buffered saline (PBS) to achieve the desired final concentration (1% DMSO). The control animals were injected with sterilized PBS containing 1% DMSO. The animals were divided into four different groups: 1) control mice +vehicle; 2) B6D2F1 Sod2−/− mice+vehicle; 3) control mice +AEOL11207; 4) B6D2F1 Sod2−/− mice +AEOL11207. The treated and untreated mice were sacrificed at 15-16 days old for pathology and biochemistry assays or until death for survival and seize behavioral evaluation.
During the weaning period (P15-P18) mice were recorded in the presence of their mothers, and individually thereafter. Video was digitally recorded (Panasonic DMR-ES 15) and stored on DVD-R′s for observation and quantification of seizure number, duration, frequency, and severity by an observer blind to treatments. Seizure severity was scored according to the following scale: 1=immobilization and staring, 2=head-nodding, shaking, 3=forelimb tonic/clonic activity, 4=continuous forelimb tonic/clonic activity with falling, running or jumping. Due to the presence of abnormal gait and posturing in Sod2^−/− mice, only spontaneous motor seizures with scores>3 were included for comparison between groups. The scoring and analysis was conducted by an investigator blinded to genotype and treatment.
Statistical analyses Survival analysis was performed using the Kaplan-Meier method. […] P values less than 0.05 were considered significant.

[1] = Scavenging of reactive oxygen species in cell-free systems and isolated mitochondria; type: biochemical
[2] = system: 1-methyl-4-phenyl-1,2,3,6-tetrahydropyridine (MPTP) neurotoxicity; details: oral administration; cited from earlier work
[3] = system: forebrain of Sod2−/− mice; test: Mitochondrial oxidative stress and bioenergetic indices in brain of Sod2−/− mice; type: in vivo
[4] = system: forebrain of Sod2−/− mice; test: as above; type: in vivo; remark: listed apart in the source
Experimental: To determine whether AEOL11207 decreases mitochondrial dysfunction and corrects key bioenergetic parameters in Sod2−/− mice, activity was measured of the oxidant sensitive mitochondrial enzyme, aconitase and oxidant insensitive control, fumarase, ATP, 3-nitrotyrosine (3NT), a marker of oxidative damage to proteins, reduced coenzyme A (CoASH) which assesses the mitochondrial redox state and the activity of the sodium potassium ATPase (Na+-K+ ATPase). […] FIGS. 5A-5EC illustrate attenuation of aconitase inactivation (5A), ATP depletion (5B), 3NT formation ([…]), CoASH depletion (5D) and decreased Na+-K+ ATPase activity (5E) in Sod2−/− mice by AEOL11207 (5 mg/kg, s.c. beginning PND5, n=*p<0.05, #p<0.01).
Methods:3-nitrotyrosine (3-NT) measurement by HPLC 3-NT assay are performed with HPLC equipped electrochemical detector using methods as previously described in the literature. The potentials of the electrochemical detector are set at 180/240/350/500/600/670/810/830 mV. Analyte separation is conducted on a TOSOHAAS (Montgomeryville, Pa.) reverse-phase ODS 80-TM C-18 analytical column (4.6 mm×[…]; 5 µm particle size). A two-component gradient elution system was used with component A of the mobile phase composed of 50 mM sodium acetate pH 3.2, and component B composed of 50mM sodium acetate and 40% methanol. The following gradient elution profile was used: 0-25 min, 100% A; 25-35 min, linear ramp to 50% B; 35-40 min, isocratic 50% B; 40-45 min, linear ramp to 100% A; 45-50 min, isocratic 100% A at a flow rate of 0.6 ml/min. 3-NT was expressed as a ratio of 3-NT to tyrosine.
Measurement of AMP, ADP and ATP: The levels of AMP, ADP and ATP are quantified by HPLC-UV set at 258 nm following previous described. Analyte are separated by […], […] C-18 reversed-phase column. Mobile phase is composed of 50 mM KH2PO4, 10% methanol, 3 mM TBAS and adjusted to pH 6.0 and flow rate set at 0.8 ml/min.
Aconitase and fumarase activity assay: Aconitase and fumarase activity are measured in mitochondrial fraction which isolated as previously described. Briefly, brain tissues are homogenized with a Dounce tissue grinder (Wheaton, Millville, N.J.) in ice-cold mitochondrial isolation buffer (70 mM sucrose, 210 mM mannitol, 5 mM Tris HCl, 1 mM EDTA pH 7.4). After homogenization, the suspensions are centrifuged at 800 g for 10 minutes at 4° C., and the supernatants centrifuged at 17,000 g for 10 minutes at 4° C. The pellets are washed by mitochondrial isolation buffer and centrifuged at 17,000 g for 10 minutes at 4° C. again. Aconitase activity is measured spectrophotometrically following previous described by monitoring the formation of cis-aconitate from isocitrate at 240 nm in 50 mM Tris HCl, pH 7.4, containing 0.6 mM MnCl2 at 25° C. Fumarase activity is measured by monitoring the increase in absorbance at 240 nm at 25° C. in a 1 ml reaction mixture containing 30 mM potassium phosphate, pH 7.4, 0.1 mM L-malate.
Isolation mitochondrial fraction Mitochondria were isolated from the forebrain of mice according to the previously described methods (Liang & Patel, (2006) Free Radic Biol Med 40, 316-22). In brief, the forebrain was homogenized with a Dounce tissue grinder (Wheaton, Millville, N.J.) in mitochondrial isolation buffer (70 mM sucrose, 210 mM mannitol, 5 mM Tris HCl, 1 mM EDTA; pH 7.4). The suspensions centrifuged at 800 g 4° C. for 10 min. The supernatants were centrifuged at 13000 g 4° C. for 10 min., pellets washed with mitochondrial isolation buffer and centrifuged at 13000 g 4° C. for 10 min. to obtain crude mitochondrial fractions. The purity of mitochondrial fractions has been confined by immunoblot analysis of cytochrome c oxidase (COX) (EC1.9.3.1) subunit IV and lactate dehydrogenase (LDH) (EC 1.1.1.27) in mitochondrial and cytosolic fractions. There is no mitochondria contamination in cytosolic fraction and about 5-10% cytosol contamination in mitochondrial fraction (Liang & Patel, (2006) Free Radic Biol Med 40, 316-22). […]

[5] = system: paraquat (PQ2+)-induced cell injury; test: Paraquat (PQ2+)-induced cell injury assay; type: cell-based; details: data not shown
[6] = system: parietal cortex of Sod2−/− mice; test: Histochemical analyses (H&E, Fluoro-Jade B) of Sod2−/− mouse brain; type: in vivo
[7] = Sod2−/− mice, 5 mg/kg s.c. daily from P5, vs vehicle, 5 mg/kg
[8] = forebrain mitochondrial fraction of Sod2−/− mice
[9] = Sod2−/− mice, 5 mg/kg s.c. from PND5

## COC(=O)c1c2nc(c(C(F)(F)F)c3ccc([n-]3)c(C(=O)OC)c3nc(c(C(F)(F)F)c4ccc1[n-]4)C=C3)C=C2.[Cl-].[Mn+3] [AEOL11207]
Mouse lymphoma
  mutagenicity, mouse lymphoma test: negative
B6D2F2 Sod2−/− mice; 5 mg/kg daily, vehicle ~48%
  Sod2−/− mice surviving beyond 15 days old: all
B6D2F2 Sod2−/− mice; P15-P20, daily observation, all vehicle-treated mice
  Sod2−/− mice exhibiting spontaneous tonic-clonic seizures: 37%
B6D2F2 Sod2−/− mice; [7]
  frequency of spontaneous behavioral seizures: significantly decreased; also recorded: decrease; also recorded: significantly attenuates
  seizure severity: but not seizure duration or severity; also recorded: no significant changes
  total number of spontaneous behavioral seizures: decrease; also recorded: significantly attenuates
B6D2F2 Sod2−/− mice; Sod2−/− mice, 5 mg/kg s.c. daily starting at 5 days of age, 5 mg/kg
  average lifespan: 20.33 ± 2.00 days
B6D2F2 Sod2−/− mice; Sod2−/− mice, 5 mg/kg s.c. daily starting at 5 days of age, listed as AEOL 11207, 5 mg/kg
  average lifespan: 20.383 ± 0.43 days
B6D2F2 Sod2−/− mice; Sod2−/− mice, daily treatment 2.5 mg/kg
  average lifespan: no significant increase
B6D2F2 Sod2−/− mice; Sod2−/− mice, s.c. from postnatal day 5
  behavioral seizure characteristics / seizure parameters: attenuates; also recorded: significantly attenuated; also recorded: ameliorates
[1]
  scavenging of mitochondrial O2-, H2O2 and lipid peroxides: catalytically scavenges
[2]
  protection against MPTP neurotoxicity: protected
[3]; brains of Sod2−/− mice
  depletion of ascorbate: significantly attenuated
  depletion of glutathione: significantly attenuated
[3]; [8]
  decrease in cysteine: significantly attenuated
  decrease in methionine: significantly attenuated
[3]; forebrain of Sod2−/− mice, 15-16 days old
  increased CoASSG: significantly attenuated
[3]; hippocampus of Sod2−/− mice, Western blot
  decrease in glutamate transporter GLT-1 expression: significantly attenuated
[4]; [9]
  decreased CoASH levels: significantly attenuated
  increase in 3-nitrotyrosine (3NT) formation: significantly attenuated
[4]; forebrain homogenates of Sod2−/− mice, 15-16 days old
  attenuation of the depletion of ATP: 50%
[4]; forebrain homogenates, Sod2−/− mice, 5 mg/kg s.c. from PND5, 5 mg/kg
  decreased Na+-K+ ATPase activity: significantly attenuated; also recorded: significantly restored
[4]; forebrain, Sod2−/− mice, 5 mg/kg s.c. from PND5
  decrease in ATP levels (ATP depletion): significantly attenuated
[4]; mitochondrial fractions, Sod2−/− mice, 5 mg/kg s.c. from PND5
  decrease in aconitase activity (aconitase inactivation): significantly attenuated
[5]
  protective range: 30 to 100 nM
[6]; H&E staining, Sod2−/− mice P15-16
  Histopathological damage including vacuole size and number: decreased
[6]; compared to vehicle treatment
  neuronal degeneration (Fluoro-Jade B staining): Significant protection
[6]; parietal cortex of Sod2−/− mice, compared to vehicle treatment
  attenuation of Fluoro-Jade B relative fluorescence density: ~50%
